# According to publication PMC6218659, “Structures of DPAGT1 Explain Glycosylation Disease Mechanisms and Advance TB Antibiotic Design” (Cell, 2018):
# Like-named read-outs stand apart in the source and are kept apart here.
# Experiments:
# Mtb H37Rv ATCC27294 = test: Minimum inhibitory concentrations testing against Mtb; assay type: cell-based, Mycobacterium tuberculosis; conditions: for MIC: Mycobacterium tuberculosis; for Relative Therapeutic Index (RTI), Mtb H37RV a / Relative Therapeutic Index (RTI), Mtb H37RV b: minimal lethal dose / MIC, 800 μg mL-1 used for >400; for Relative Therapeutic Index (RTI), Mtb H37RV a: 7H9/ADC/Tw; for Relative Therapeutic Index (RTI), Mtb H37RV b: GAST/Fe
# Raji cells = test: Cell proliferation assay (MTS); assay type: cell-based, human; conditions: 24 hrs
# Description: (§1) In sterile 96-well plate, each well was seeded with ∼1x10^5 cells. The cells are then grown confluent overnight in 100 μl DMEM with 10% FBS. The medium is replenished with DMEM with 2% FBS and added vehicle control or test substance the next day. For test substance in methanol, stock was added to 25 μl of DMEM with 2% FBS or PBS and placed in the laminar flow hood to let the methanol evaporate (about 1-3 hrs). Once the methanol has evaporated, DMEM with 2% FBS was added to final volume of 100 μl of desired test concentration. […] Cells are grown for additional 24 hrs. The cell viability was determined by using Promega CellTiter 96^© AQueous One Solution Cell Proliferation Assay (3-(4,5-dimethylthiazol-2-yl)-5-(3-carboxymethoxyphenyl)-2-(4-sulfophenyl)-2H-tetrazolium, inner salt; MTS) System following the manufacture protocol.
# HEK293 cells = test: Cell proliferation assay (MTS); assay type: cell-based, human; conditions: for LD50 values, HEK293: MTS cell proliferation assay, 24 hrs, highest concentration 400 µg mL-1; for Minimal Lethal Dose, HEK 293: serial 2-fold dilutions (Table S6)
# Description: as §1
# HepG2 cells = test: Cell proliferation assay (MTS); assay type: cell-based, human; conditions: for LD50 values, HepG2: MTS cell proliferation assay, 24 hrs, highest concentration 400 µg mL-1; for Minimal Lethal Dose, HepG2: serial 2-fold dilutions (Table S6)
# Description: as §1
# B. subtilis EC1524 = test: Micro-broth dilution and drop plate antimicrobial susceptibility test; assay type: cell-based, Bacillus subtilis; conditions: for IC50 / MBC / MIC: Bacillus subtilis; for Relative Therapeutic Index (RTI), B. subtilis EC1524: minimal lethal dose / MIC, 800 μg mL-1 used for >400
# Description: (§2) In a sterile 96-well plate, serial dilutions were made with the test substance to final volume of 50 μl. Inoculum was then prepared in Mueller-Hinton broth to 0.5 McFarland and diluted before adding 50 μl to the well to make ∼1x10^5 CFU/ml. The culture plate was incubated at 35 °C for 20-24 hrs. A positive growth control and sterility wells were also prepared along with the culture wells. Absorbance at OD600 was taken using BMG Labtech SPECTROstar Omega spectrophotometer. MIC is determined by the lowest concentration without growth. IC50 is determined from plotting a dose-response curve, see Data Analysis below. To determine the MBC, using a multi-channel pipette, 1 μl of culture broth was taken from the same 96-well microdilution growth plate and carefully inoculated on surface of MH agar plate. The plate is then incubated for additional 20 hrs. at 35 °C. The MBC value is the lowest concentration without observed growth on the agar.
# B. cereus ATCC11778 = test: as above; assay type: cell-based, Bacillus cereus; conditions: for IC50 / MBC / MIC: Bacillus cereus; for Relative Therapeutic Index (RTI), B. cereus NRRL 11778: minimal lethal dose / MIC, 800 μg mL-1 used for >400
# Description: as §2
# E. coli ATCC25922 = test: as above; assay type: cell-based; conditions: Escherichia coli
# Description: as §2
# P. aeruginosa ATCC27853 = test: as above; assay type: cell-based; conditions: Pseudomonas aeruginosa
# Description: as §2
# S. aureus ATCC29219 = test: as above; assay type: cell-based; conditions: Staphylococcus aureus
# Description: as §2
# [1] = 168 h, Mtb H37Rv, minimal growth medium, read-out: 1-week MIC in GAST/Fe
# [2] = 168 h, Mtb H37Rv, rich 7H9-based growth medium, read-out: 1-week MIC in 7H9/ADC/Tw
# [3] = 168 h, read-out: 1-week MIC in 7H9/ADC/Tw
# [4] = 168 h, read-out: 1-week MIC in GAST/Fe
# [5] = 168 h, read-out: Minimal Inhibitory Concentration, Mtb H37RV a
# [6] = 168 h, read-out: Minimal Inhibitory Concentration, Mtb H37RV b
# [7] = EC1524, read-out: Minimal Inhibitory Concentration, B. subtilis EC1524
# [8] = ATCC 11778 / NRRL11778, read-out: Minimal Inhibitory Concentration, B. cereus NRRL 11778
SMILES,MIC (Mtb H37Rv ATCC27294; [1]) [µg/mL],MIC (Mtb H37Rv ATCC27294; [2]) [µg/mL],"LD50 values, Raji (Raji cells) [µg/mL]","LD50 values, HEK293 (HEK293 cells)","LD50 values, HepG2 (HepG2 cells)",MIC (Mtb H37Rv ATCC27294; [3]) [µg/mL],MIC (Mtb H37Rv ATCC27294; [4]) [µg/mL],MIC (Mtb H37Rv ATCC27294; [5]) [µg/mL],MIC (Mtb H37Rv ATCC27294; [6]) [µg/mL],"Relative Therapeutic Index (RTI), Mtb H37RV a (Mtb H37Rv ATCC27294)","Relative Therapeutic Index (RTI), Mtb H37RV b (Mtb H37Rv ATCC27294)",IC50 (B. subtilis EC1524; EC1524) [µg/mL],MBC (B. subtilis EC1524; EC1524) [µg/mL],MIC (B. subtilis EC1524; EC1524) [µg/mL],MIC (B. subtilis EC1524; [7]) [µg/mL],"Relative Therapeutic Index (RTI), B. subtilis EC1524 (B. subtilis EC1524)","Minimal Lethal Dose, HEK 293 (HEK293 cells) [µg/mL]","Minimal Lethal Dose, HepG2 (HepG2 cells) [µg/mL]",IC50 (B. cereus ATCC11778; ATCC11778) [µg/mL],MBC (B. cereus ATCC11778; ATCC11778) [µg/mL],other results
"CC(=O)N[C@H]1C(O)O[C@H](C[C@@H](O)[C@H]2O[C@@H](n3ccc(=O)[nH]c3=O)[C@H](O)[C@@H]2O)[C@H](O)[C@@H]1O (stereo partly drawn) [(2), N-acetyl-tunicamyl-uracil]",42.5 ± 3.5,> 60,303.80 ± 9.83,"N/A (N/A = not available. No or low cytotoxicity observed at highest, saturating concentration tested (400 µg mL-1))","N/A (N/A = not available. No or low cytotoxicity observed at highest, saturating concentration tested (400 µg mL-1))",–,–,–,–,–,–,–,–,–,–,–,–,–,–,–,–
"N[C@@H]1CON=C1O [D-cycloserine, reference compound]",–,–,–,–,–,–,–,–,–,–,–,–,–,–,–,–,–,–,–,–,"MIC (Mtb H37Rv ATCC27294; Mtb H37Rv, used for macromolecular incorporation assay, read-out: MIC concentrations for controls): 29 µM"
"NNC(=O)c1ccncc1 [Isoniazid, reference compound]",–,–,–,–,–,–,–,–,–,–,–,–,–,–,–,–,–,–,–,–,"MIC (Mtb H37Rv ATCC27294; Mtb H37Rv, tested from 0.024 - 50 μM, read-out: MIC of positive control): 0.2 ± 0.1 µM"
"CCCCCCC(=O)N[C@H]1[C@H](O[C@H]2O[C@H](CO)[C@@H](O)[C@H](O)[C@H]2NC(=O)CCCCCC)O[C@H](C[C@@H](O)[C@H]2O[C@@H](n3ccc(=O)[nH]c3=O)[C@H](O)[C@@H]2O)[C@H](O)[C@@H]1O [TUN-7,7, Di-N-heptanoyl tunicamycin]",–,–,431.10 ± 241.81,"N/A (N/A = not available. No or low cytotoxicity observed at highest, saturating concentration tested (400 µg mL-1))","N/A (N/A = not available. No or low cytotoxicity observed at highest, saturating concentration tested (400 µg mL-1))",5 ± 3.5,1.6 ± 1.8,5,1.6,160,500,3.12 ± 1.04,> 50,5.2 ± 1.8,6.25,128,> 400,> 400,13.3,> 200,"MIC (B. cereus ATCC11778; ATCC11778): 83 ± 29 µg/mL; MIC (B. cereus ATCC11778; [8]): 100 µg/mL; Relative Therapeutic Index (RTI), B. cereus NRRL 11778 (B. cereus ATCC11778): 8; IC50 (E. coli ATCC25922): 131 µg/mL; MBC (E. coli ATCC25922): > 400 µg/mL; MIC (E. coli ATCC25922): 330 ± 120 µg/mL; IC50 (P. aeruginosa ATCC27853): 62.4 µg/mL; MBC (P. aeruginosa ATCC27853): > 400 µg/mL; MIC (P. aeruginosa ATCC27853): 83 ± 29 µg/mL; IC50 (S. aureus ATCC29219): 80.5 µg/mL; MBC (S. aureus ATCC29219): > 400 µg/mL; MIC (S. aureus ATCC29219): 170 ± 60 µg/mL"
"CCCCCCCCCCCC(=O)N[C@H]1[C@H](O[C@H]2O[C@H](CO)[C@@H](O)[C@H](O)[C@H]2NC(=O)CCCCCCCCCCC)O[C@H](C[C@@H](O)[C@H]2O[C@@H](n3ccc(=O)[nH]c3=O)[C@H](O)[C@@H]2O)[C@H](O)[C@@H]1O [TUN-12,12, Di-N-dodecanoyl-tunicamycin]",–,–,81.29 ± 30.20,"N/A (N/A = not available. No or low cytotoxicity observed at highest, saturating concentration tested (400 µg mL-1))","N/A (N/A = not available. No or low cytotoxicity observed at highest, saturating concentration tested (400 µg mL-1))",18.7 ± 5.4,6.9 ± 6.2,18.7,6.9,43,116,58.9,> 200,83 ± 29,100,8,> 400,> 400,1.4 ± 0.47,> 200,"MIC (B. cereus ATCC11778; ATCC11778): 42 ± 14 µg/mL; MIC (B. cereus ATCC11778; [8]): 50 µg/mL; Relative Therapeutic Index (RTI), B. cereus NRRL 11778 (B. cereus ATCC11778): 16; IC50 (E. coli ATCC25922): 182 µg/mL; MBC (E. coli ATCC25922): > 400 µg/mL; MIC (E. coli ATCC25922): 330 ± 120 µg/mL; IC50 (P. aeruginosa ATCC27853): 81.7 µg/mL; MBC (P. aeruginosa ATCC27853): > 400 µg/mL; MIC (P. aeruginosa ATCC27853): 170 ± 6 µg/mL; IC50 (S. aureus ATCC29219): 61.9 µg/mL; MBC (S. aureus ATCC29219): > 400 µg/mL; MIC (S. aureus ATCC29219): 170 ± 60 µg/mL"
"CC(=O)N[C@H]1[C@H](O[C@H]2O[C@H](CO)[C@@H](O)[C@H](O)[C@H]2NC(C)=O)O[C@H](C[C@@H](O)[C@H]2O[C@@H](n3ccc(=O)[nH]c3=O)[C@H](O)[C@@H]2O)[C@H](O)[C@@H]1O [TUN-Ac,Ac, α-D-N-acetylglucosamine-(1”-11')-N-acetyl tunicamyl uracil]",21.3 ± 1.8,≥ 60,212.30 ± 51.48,"N/A (N/A = not available. No or low cytotoxicity observed at highest, saturating concentration tested (400 µg mL-1))","N/A (N/A = not available. No or low cytotoxicity observed at highest, saturating concentration tested (400 µg mL-1))",–,–,–,–,–,–,–,–,–,–,–,–,–,–,–,–
"CC(C)(C)OC(=O)N[C@H]1[C@H](O[C@H]2O[C@H](CO)[C@@H](O)[C@H](O)[C@H]2NC(=O)OC(C)(C)C)O[C@H](C[C@@H](O)[C@H]2O[C@@H](n3ccc(=O)[nH]c3=O)[C@H](O)[C@@H]2O)[C@H](O)[C@@H]1O [TUN-Boc,Boc, 10',2""-Di-N-Boc-α-D-glucosamine-(1”-11')-tunicamyl uracil]",> 60,> 60,608.9 ± 394.9,"N/A (N/A = not available. No or low cytotoxicity observed at highest, saturating concentration tested (400 µg mL-1))","N/A (N/A = not available. No or low cytotoxicity observed at highest, saturating concentration tested (400 µg mL-1))",–,–,–,–,–,–,–,–,–,–,–,–,–,–,–,–
"CC(C)=CCC[C@H](C)CC(=O)N[C@H]1[C@H](O[C@H]2O[C@H](CO)[C@@H](O)[C@H](O)[C@H]2NC(=O)C[C@@H](C)CCC=C(C)C)O[C@H](C[C@@H](O)[C@H]2O[C@@H](n3ccc(=O)[nH]c3=O)[C@H](O)[C@@H]2O)[C@H](O)[C@@H]1O [TUN-Cit,Cit, Di-N-citronoyl-tunicamycin]",–,–,177.75 ± 75.17,"N/A (N/A = not available. No or low cytotoxicity observed at highest, saturating concentration tested (400 µg mL-1))","N/A (N/A = not available. No or low cytotoxicity observed at highest, saturating concentration tested (400 µg mL-1))",16.3 ± 8.8,3.4 ± 3.1,16.3,3.4,49,235,0.36 ± 0.12,> 200,5.2 ± 1.8,6.25,128,> 400,> 400,6.29 ± 2.1,> 200,"MIC (B. cereus ATCC11778; ATCC11778): 83 ± 29 µg/mL; MIC (B. cereus ATCC11778; [8]): 100 µg/mL; Relative Therapeutic Index (RTI), B. cereus NRRL 11778 (B. cereus ATCC11778): 8; IC50 (E. coli ATCC25922): 218 µg/mL; MBC (E. coli ATCC25922): 400 µg/mL; MIC (E. coli ATCC25922): > 400 µg/mL; IC50 (P. aeruginosa ATCC27853): 70.3 µg/mL; MBC (P. aeruginosa ATCC27853): > 400 µg/mL; MIC (P. aeruginosa ATCC27853): 170 ± 60 µg/mL; IC50 (S. aureus ATCC29219): 177 µg/mL; MBC (S. aureus ATCC29219): > 200 µg/mL; MIC (S. aureus ATCC29219): > 400 µg/mL"
"C[C@@H](O)[C@H]1C(=O)N2C(C(=O)O)=C(S[C@@H]3CN[C@H](C(=O)N(C)C)C3)[C@H](C)[C@H]12 [meropenem, reference compound]",–,–,–,–,–,–,–,–,–,–,–,–,–,–,–,–,–,–,–,–,"MIC (Mtb H37Rv ATCC27294; Mtb H37Rv, with clavulanate at a fixed concentration of 100 μM, read-out: MIC concentration for control): 2 µM"
